Source: PubChem BioAssay (NCI)
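Briefly, cells in 96-well plates were exposed to five compound concentrations for 48 h, and endpoints were estimated by linear interpolation. TGI: total growth inhibition.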

Legend:
Test in all cases: NCI anticancer screen, dose series, 48 h
SF-539 CNS = test system: SF-539 CNS
A498 renal = test system: A498 renal
OVCAR-5 ovarian = test system: OVCAR-5 ovarian
SK-MEL-2 melanoma = test system: SK-MEL-2 melanoma
IGROV1 ovarian = test system: IGROV1 ovarian
UACC-257 melanoma = test system: UACC-257 melanoma
ACHN renal = test system: ACHN renal
SK-MEL-28 melanoma = test system: SK-MEL-28 melanoma
SF-268 CNS = test system: SF-268 CNS
NCI-H226 lung = test system: NCI-H226 lung
RPMI-8226 leukemia = test system: RPMI-8226 leukemia
K-562 leukemia = test system: K-562 leukemia
MDA-MB-435 = test system: MDA-MB-435
EKVX NSCLC = test system: EKVX NSCLC
PC-3 prostate = test system: PC-3 prostate
RXF 393 renal = test system: RXF 393 renal
MCF7 breast = test system: MCF7 breast
HL-60(TB) leukemia = test system: HL-60(TB) leukemia
MOLT-4 leukemia = test system: MOLT-4 leukemia
786-0 renal = test system: 786-0 renal
OVCAR-4 ovarian = test system: OVCAR-4 ovarian
OVCAR-3 ovarian = test system: OVCAR-3 ovarian
DU-145 prostate = test system: DU-145 prostate
COLO 205 colon = test system: COLO 205 colon
LOX IMVI melanoma = test system: LOX IMVI melanoma
HCT-15 colon = test system: HCT-15 colon
NCI-H460 lung = test system: NCI-H460 lung
T-47D breast = test system: T-47D breast
UACC-62 melanoma = test system: UACC-62 melanoma
U251 CNS = test system: U251 CNS
UO-31 renal = test system: UO-31 renal
NCI/ADR-RES ovarian = test system: NCI/ADR-RES ovarian
NCI-H522 lung = test system: NCI-H522 lung
SNB-19 CNS = test system: SNB-19 CNS
NCI-H23 lung = test system: NCI-H23 lung
SR leukemia = test system: SR leukemia
SW-620 colon = test system: SW-620 colon
HOP-62 NSCLC = test system: HOP-62 NSCLC
HCT-116 colon = test system: HCT-116 colon
TK-10 renal = test system: TK-10 renal
SK-OV-3 ovarian = test system: SK-OV-3 ovarian
KM12 colon = test system: KM12 colon
SF-295 CNS = test system: SF-295 CNS
HCC-2998 colon = test system: HCC-2998 colon
A549 NSCLC = test system: A549 NSCLC
CCRF-CEM leukemia = test system: CCRF-CEM leukemia
OVCAR-8 ovarian = test system: OVCAR-8 ovarian
M14 melanoma = test system: M14 melanoma
HS 578T breast = test system: HS 578T breast
CAKI-1 renal = test system: CAKI-1 renal
SN12C renal = test system: SN12C renal
SNB-75 CNS = test system: SNB-75 CNS
HOP-92 NSCLC = test system: HOP-92 NSCLC
MDA-MB-231 breast = test system: MDA-MB-231 breast
BT-549 breast = test system: BT-549 breast
HT29 colon = test system: HT29 colon
MALME-3M melanoma = test system: MALME-3M melanoma
SK-MEL-5 melanoma = test system: SK-MEL-5 melanoma

CC(C)=C1C(=O)C[C@]2(C)C[C@H]3O[C@]3(C)CC[C@@H]3O[C@@]3(C)CC[C@@H]12
TGI (SF-539 CNS): > 50 µM | TGI (A498 renal): > 50 µM | TGI (OVCAR-5 ovarian): > 50 µM | TGI (SK-MEL-2 melanoma): > 50 µM | TGI (IGROV1 ovarian): > 50 µM | TGI (UACC-257 melanoma): > 50 µM | TGI (ACHN renal): > 50 µM | TGI (SK-MEL-28 melanoma): > 50 µM | TGI (SF-268 CNS): > 50 µM | TGI (NCI-H226 lung): > 50 µM | TGI (RPMI-8226 leukemia): > 50 µM | TGI (K-562 leukemia): > 50 µM | TGI (MDA-MB-435): > 50 µM | TGI (EKVX NSCLC): > 50 µM | TGI (PC-3 prostate): > 50 µM | TGI (RXF 393 renal): > 50 µM | TGI (MCF7 breast): > 50 µM | TGI (HL-60(TB) leukemia): > 50 µM | TGI (MOLT-4 leukemia): > 50 µM | TGI (786-0 renal): > 50 µM | TGI (OVCAR-4 ovarian): > 50 µM | TGI (OVCAR-3 ovarian): > 50 µM | TGI (DU-145 prostate): > 50 µM | TGI (COLO 205 colon): > 50 µM | TGI (LOX IMVI melanoma): > 50 µM | TGI (HCT-15 colon): > 50 µM | TGI (NCI-H460 lung): > 50 µM | TGI (T-47D breast): > 50 µM | TGI (UACC-62 melanoma): > 50 µM | TGI (U251 CNS): > 50 µM | TGI (UO-31 renal): > 50 µM | TGI (NCI/ADR-RES ovarian): > 50 µM | TGI (NCI-H522 lung): > 50 µM | TGI (SNB-19 CNS): > 50 µM | TGI (NCI-H23 lung): > 50 µM | TGI (SR leukemia): > 50 µM | TGI (SW-620 colon): > 50 µM | TGI (HOP-62 NSCLC): > 50 µM | TGI (HCT-116 colon): > 50 µM | TGI (TK-10 renal): > 50 µM | TGI (SK-OV-3 ovarian): > 50 µM | TGI (KM12 colon): > 50 µM | TGI (SF-295 CNS): > 50 µM | TGI (HCC-2998 colon): > 50 µM | TGI (A549 NSCLC): > 50 µM | TGI (CCRF-CEM leukemia): > 50 µM | TGI (OVCAR-8 ovarian): > 50 µM | TGI (M14 melanoma): > 50 µM | TGI (HS 578T breast): > 50 µM | TGI (CAKI-1 renal): > 50 µM | TGI (SN12C renal): > 50 µM | TGI (SNB-75 CNS): > 50 µM | TGI (HOP-92 NSCLC): > 50 µM | TGI (MDA-MB-231 breast): > 50 µM | TGI (BT-549 breast): > 50 µM | TGI (HT29 colon): > 50 µM

Cc1sc(Nc2ccc(Nc3nc(-c4ccccc4)c(C)s3)cc2)nc1-c1ccccc1
TGI (SF-539 CNS): 70.6 µM | TGI (A498 renal): > 100 µM | TGI (OVCAR-5 ovarian): > 100 µM | TGI (SK-MEL-2 melanoma): 76.4 µM | TGI (IGROV1 ovarian): > 100 µM | TGI (UACC-257 melanoma): > 100 µM | TGI (ACHN renal): > 100 µM | TGI (MALME-3M melanoma): > 100 µM | TGI (SK-MEL-28 melanoma): > 100 µM | TGI (SF-268 CNS): > 100 µM | TGI (NCI-H226 lung): > 100 µM | TGI (K-562 leukemia): > 100 µM | TGI (MDA-MB-435): > 100 µM | TGI (EKVX NSCLC): > 100 µM | TGI (PC-3 prostate): 48.4 µM | TGI (RXF 393 renal): 81.5 µM | TGI (MCF7 breast): 71.5 µM | TGI (MOLT-4 leukemia): > 100 µM | TGI (786-0 renal): > 100 µM | TGI (OVCAR-4 ovarian): > 100 µM | TGI (OVCAR-3 ovarian): > 100 µM | TGI (DU-145 prostate): > 100 µM | TGI (COLO 205 colon): 42.1 µM | TGI (LOX IMVI melanoma): > 100 µM | TGI (HCT-15 colon): > 100 µM | TGI (NCI-H460 lung): > 100 µM | TGI (T-47D breast): > 100 µM | TGI (UACC-62 melanoma): > 100 µM | TGI (U251 CNS): 49.6 µM | TGI (UO-31 renal): > 100 µM | TGI (NCI/ADR-RES ovarian): > 100 µM | TGI (NCI-H522 lung): > 100 µM | TGI (SNB-19 CNS): > 100 µM | TGI (NCI-H23 lung): > 100 µM | TGI (SR leukemia): > 100 µM | TGI (SW-620 colon): > 100 µM | TGI (HOP-62 NSCLC): > 100 µM | TGI (HCT-116 colon): > 100 µM | TGI (TK-10 renal): > 100 µM | TGI (SK-OV-3 ovarian): > 100 µM | TGI (KM12 colon): > 100 µM | TGI (SF-295 CNS): > 100 µM | TGI (HCC-2998 colon): 50.5 µM | TGI (A549 NSCLC): > 100 µM | TGI (CCRF-CEM leukemia): > 100 µM | TGI (SK-MEL-5 melanoma): 66.3 µM | TGI (OVCAR-8 ovarian): > 100 µM | TGI (M14 melanoma): > 100 µM | TGI (HS 578T breast): > 100 µM | TGI (CAKI-1 renal): > 100 µM | TGI (SN12C renal): > 100 µM | TGI (SNB-75 CNS): > 100 µM | TGI (HOP-92 NSCLC): > 100 µM | TGI (MDA-MB-231 breast): > 100 µM | TGI (BT-549 breast): > 100 µM | TGI (HT29 colon): > 100 µM
